Data published in patent US11691980B2, “Liphagal analog and multi-targeted kinase inhibitor containing liphagal or analog thereof” (TOHOKU UNIVERSITY, priority 2017, dated 2023).

Tests used:
Assay in all cases: mobility shift assay
Assay type in all cases: biochemical
EEF2K = molecular target: T1, EEF2K (Homo sapiens, UniProt O00418)
T1 construct: purchased Carna Biosciences

TNK1 = molecular target: T2, TNK1 (Homo sapiens, UniProt Q13470)
T2 construct: purchased Carna Biosciences

MSK1 = molecular target: T3, MSK1 (Homo sapiens, UniProt O75582)
T3 construct: purchased Carna Biosciences

RAK4 = molecular target: T4, RAK4 (Homo sapiens, UniProt Q9NWZ3)
T4 construct: purchased Carna Biosciences

p38γ = molecular target: T5, p38γ (Homo sapiens, UniProt P53778)
T5 construct: purchased Carna Biosciences

MAP4K2 = molecular target: T6, MAP4K2 (Homo sapiens, UniProt Q12851)
T6 construct: purchased Carna Biosciences

PASK = molecular target: T7, PASK (Homo sapiens, UniProt Q96RG2)
T7 construct: purchased Carna Biosciences

FGFR1(V561M) = molecular target: T8, FGFR1(V561M) (Homo sapiens, UniProt P11362, V561M)
T8 construct: purchased Carna Biosciences

CRIK = molecular target: T9, CRIK (Homo sapiens, UniProt O14578)
T9 construct: purchased Carna Biosciences

AMPKα1/β1/γ1 = molecular target: T10, AMPKα1/β1/γ1 (Homo sapiens, UniProt Q13131)
T10 construct: purchased Carna Biosciences

MAPKAPK2 = molecular target: T11, MAPKAPK2 (Homo sapiens, UniProt P49137)
T11 construct: purchased Carna Biosciences

NDR1 = molecular target: T12, NDR1 (Homo sapiens, UniProt Q15208)
T12 construct: purchased Carna Biosciences

CSK = molecular target: T13, CSK (Homo sapiens, UniProt P41240)
T13 construct: purchased Carna Biosciences

TXK = molecular target: T14, TXK (Homo sapiens, UniProt P42681)
T14 construct: purchased Carna Biosciences

HPK2 = molecular target: T15, HPK2 (Homo sapiens, UniProt Q9H2X6)
T15 construct: purchased Carna Biosciences

DLK_Cascade = molecular target: T16, DLK_Cascade (Homo sapiens, UniProt Q12852)
T16 construct: purchased Carna Biosciences

DCAMKL2 = molecular target: T17, DCAMKL2 (Homo sapiens, UniProt Q8N568)
T17 construct: purchased Carna Biosciences

TNK = molecular target: T18, TNK (Homo sapiens, UniProt Q9UKE5)
T18 construct: purchased Carna Biosciences

EGFR(T790M) = molecular target: T19, EGFR(T790M) (Homo sapiens, UniProt P00533, T790M)
T19 construct: purchased Carna Biosciences

NEK1 = molecular target: T20, NEK1 (Homo sapiens, UniProt Q96PY6)
T20 construct: purchased Carna Biosciences
T20 sequence (Q96PY6 whole entry): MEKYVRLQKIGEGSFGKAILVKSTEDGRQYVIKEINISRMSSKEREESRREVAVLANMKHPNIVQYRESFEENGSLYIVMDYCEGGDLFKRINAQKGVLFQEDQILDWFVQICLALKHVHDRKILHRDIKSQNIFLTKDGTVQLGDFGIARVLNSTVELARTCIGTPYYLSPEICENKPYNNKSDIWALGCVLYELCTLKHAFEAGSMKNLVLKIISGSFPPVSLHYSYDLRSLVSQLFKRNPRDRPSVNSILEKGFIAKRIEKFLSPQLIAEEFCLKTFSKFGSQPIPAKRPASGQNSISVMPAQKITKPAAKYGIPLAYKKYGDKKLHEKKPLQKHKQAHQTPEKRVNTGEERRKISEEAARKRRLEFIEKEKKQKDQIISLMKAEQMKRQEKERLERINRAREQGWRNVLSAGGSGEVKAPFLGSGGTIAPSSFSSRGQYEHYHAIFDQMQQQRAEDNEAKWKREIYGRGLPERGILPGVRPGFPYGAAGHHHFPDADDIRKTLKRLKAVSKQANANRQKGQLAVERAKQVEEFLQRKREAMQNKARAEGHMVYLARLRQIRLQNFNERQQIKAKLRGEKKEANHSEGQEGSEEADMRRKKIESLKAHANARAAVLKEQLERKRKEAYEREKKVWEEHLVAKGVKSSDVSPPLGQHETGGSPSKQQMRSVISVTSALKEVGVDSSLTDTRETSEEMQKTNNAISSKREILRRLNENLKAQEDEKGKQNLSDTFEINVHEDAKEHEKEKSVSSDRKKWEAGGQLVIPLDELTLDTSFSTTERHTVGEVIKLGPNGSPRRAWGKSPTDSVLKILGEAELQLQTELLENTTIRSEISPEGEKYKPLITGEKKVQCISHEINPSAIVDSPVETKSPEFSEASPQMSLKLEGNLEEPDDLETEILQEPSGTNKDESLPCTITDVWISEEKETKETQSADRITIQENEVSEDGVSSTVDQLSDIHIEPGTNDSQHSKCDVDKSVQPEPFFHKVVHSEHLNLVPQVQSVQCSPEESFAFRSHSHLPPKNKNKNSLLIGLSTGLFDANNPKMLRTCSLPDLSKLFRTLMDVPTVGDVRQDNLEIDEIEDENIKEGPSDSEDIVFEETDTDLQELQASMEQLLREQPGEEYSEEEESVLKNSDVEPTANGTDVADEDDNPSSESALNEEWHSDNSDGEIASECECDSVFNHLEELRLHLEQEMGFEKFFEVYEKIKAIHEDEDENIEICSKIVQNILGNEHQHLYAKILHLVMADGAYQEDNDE

ROCK1 = molecular target: T21, ROCK1 (Homo sapiens, UniProt Q13464)
T21 construct: purchased Carna Biosciences

EGFR = molecular target: T22, EGFR (Homo sapiens, UniProt P00533)
T22 construct: purchased Carna Biosciences

CDK3/CycE1 = molecular target: T23, CDK3/CycE1 (Homo sapiens, UniProt Q00526)
T23 construct: purchased Carna Biosciences
T23 sequence (Q00526 whole entry): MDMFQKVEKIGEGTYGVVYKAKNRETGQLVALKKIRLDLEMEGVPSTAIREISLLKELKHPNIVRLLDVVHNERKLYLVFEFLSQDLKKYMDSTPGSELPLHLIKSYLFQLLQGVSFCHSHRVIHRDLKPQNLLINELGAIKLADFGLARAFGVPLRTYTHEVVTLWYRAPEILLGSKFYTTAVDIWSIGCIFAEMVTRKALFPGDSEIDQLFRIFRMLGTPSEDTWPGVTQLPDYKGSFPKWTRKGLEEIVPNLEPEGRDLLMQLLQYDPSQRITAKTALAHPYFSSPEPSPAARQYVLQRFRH
T23 sequence (P24864 whole entry partner): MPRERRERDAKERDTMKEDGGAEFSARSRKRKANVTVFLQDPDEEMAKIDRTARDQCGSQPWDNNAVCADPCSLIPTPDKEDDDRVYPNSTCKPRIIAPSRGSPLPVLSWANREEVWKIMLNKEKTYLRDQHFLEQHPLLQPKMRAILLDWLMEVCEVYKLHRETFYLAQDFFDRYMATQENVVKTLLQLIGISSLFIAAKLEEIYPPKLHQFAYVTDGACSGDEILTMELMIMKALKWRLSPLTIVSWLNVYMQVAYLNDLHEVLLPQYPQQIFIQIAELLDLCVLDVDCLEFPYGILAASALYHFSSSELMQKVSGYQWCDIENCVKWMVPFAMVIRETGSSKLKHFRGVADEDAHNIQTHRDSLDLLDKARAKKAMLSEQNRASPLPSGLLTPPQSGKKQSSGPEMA

NEK9 = molecular target: T24, NEK9 (Homo sapiens, UniProt Q8TD19)
T24 construct: purchased Carna Biosciences

MARK4 = molecular target: T25, MARK4 (Homo sapiens, UniProt Q96L34)
T25 construct: purchased Carna Biosciences

PHKG2 = molecular target: T26, PHKG2 (Homo sapiens, UniProt P15735)
T26 construct: purchased Carna Biosciences

RET(G691S) = molecular target: T27, RET(G691S) (Homo sapiens, UniProt P07949, G691S)
T27 construct: purchased Carna Biosciences
T27 sequence (P07949 29-1114 G691S): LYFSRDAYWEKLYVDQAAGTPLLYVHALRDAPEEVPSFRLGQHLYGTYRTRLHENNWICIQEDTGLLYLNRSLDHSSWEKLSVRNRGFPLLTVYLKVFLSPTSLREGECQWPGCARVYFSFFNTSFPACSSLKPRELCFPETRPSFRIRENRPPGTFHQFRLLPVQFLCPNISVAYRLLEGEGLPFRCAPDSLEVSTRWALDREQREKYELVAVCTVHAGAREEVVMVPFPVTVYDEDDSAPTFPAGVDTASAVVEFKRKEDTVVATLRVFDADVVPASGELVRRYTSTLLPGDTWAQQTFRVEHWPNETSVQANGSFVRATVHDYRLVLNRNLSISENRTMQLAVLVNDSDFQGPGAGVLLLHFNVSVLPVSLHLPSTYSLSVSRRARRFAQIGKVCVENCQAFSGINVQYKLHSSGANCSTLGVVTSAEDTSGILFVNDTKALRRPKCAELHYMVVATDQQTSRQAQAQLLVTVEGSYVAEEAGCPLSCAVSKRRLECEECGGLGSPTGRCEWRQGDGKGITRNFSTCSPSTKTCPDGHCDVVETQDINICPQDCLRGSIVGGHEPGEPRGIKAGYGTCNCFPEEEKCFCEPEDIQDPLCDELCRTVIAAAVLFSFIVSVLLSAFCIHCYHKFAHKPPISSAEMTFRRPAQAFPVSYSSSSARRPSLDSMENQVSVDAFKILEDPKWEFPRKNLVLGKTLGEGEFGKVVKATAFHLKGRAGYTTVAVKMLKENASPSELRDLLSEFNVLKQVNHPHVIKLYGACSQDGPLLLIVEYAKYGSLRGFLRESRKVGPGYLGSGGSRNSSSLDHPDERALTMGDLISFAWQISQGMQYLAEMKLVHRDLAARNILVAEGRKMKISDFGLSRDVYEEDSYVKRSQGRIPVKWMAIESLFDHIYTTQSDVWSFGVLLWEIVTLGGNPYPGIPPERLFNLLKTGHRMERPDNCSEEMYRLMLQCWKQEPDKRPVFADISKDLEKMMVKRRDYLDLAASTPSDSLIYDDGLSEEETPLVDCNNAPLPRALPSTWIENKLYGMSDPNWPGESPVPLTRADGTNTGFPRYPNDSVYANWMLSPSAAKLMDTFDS

DYRK1B = molecular target: T28, DYRK1B (Homo sapiens, UniProt Q9Y463)
T28 construct: purchased Carna Biosciences
T28 sequence (Q9Y463 whole entry): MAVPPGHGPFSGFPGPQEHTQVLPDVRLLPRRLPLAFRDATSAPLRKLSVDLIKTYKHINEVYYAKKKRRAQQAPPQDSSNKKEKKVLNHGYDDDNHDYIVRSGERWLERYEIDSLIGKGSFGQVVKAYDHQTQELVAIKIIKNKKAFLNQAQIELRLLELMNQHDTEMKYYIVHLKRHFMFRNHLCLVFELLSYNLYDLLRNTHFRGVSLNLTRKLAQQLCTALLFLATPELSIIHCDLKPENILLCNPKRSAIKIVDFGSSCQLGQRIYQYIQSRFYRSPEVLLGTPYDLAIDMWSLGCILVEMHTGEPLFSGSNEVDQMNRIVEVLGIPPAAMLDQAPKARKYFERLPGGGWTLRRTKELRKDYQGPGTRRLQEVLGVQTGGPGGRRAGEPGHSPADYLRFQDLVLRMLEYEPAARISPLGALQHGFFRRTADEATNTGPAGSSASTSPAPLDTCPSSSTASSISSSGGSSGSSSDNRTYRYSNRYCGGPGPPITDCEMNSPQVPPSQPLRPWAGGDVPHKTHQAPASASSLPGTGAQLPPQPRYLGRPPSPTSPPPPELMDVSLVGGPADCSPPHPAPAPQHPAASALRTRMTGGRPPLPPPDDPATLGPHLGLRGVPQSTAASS

SLK = molecular target: T29, SLK (Homo sapiens, UniProt Q9H2G2)
T29 construct: purchased Carna Biosciences

PDGFRα(V561D) = molecular target: T30, PDGFRα(V561D) (Homo sapiens, UniProt P16234, V561D)
T30 construct: purchased Carna Biosciences

LYNa = molecular target: T31, LYNa (Homo sapiens, UniProt P07948)
T31 construct: purchased Carna Biosciences

MAP3K4_Cascade = conditions: 10 μM
CLK1 = molecular target: T32, CLK1 (Homo sapiens, UniProt P49759)
T32 construct: purchased Carna Biosciences

ACK = molecular target: T33, ACK (Homo sapiens, UniProt Q07912)
T33 construct: purchased Carna Biosciences

PLK1 = molecular target: T34, PLK1 (Homo sapiens, UniProt P53350)
T34 construct: purchased Carna Biosciences

TIE2 = molecular target: T35, TIE2 (Homo sapiens, UniProt Q02763)
T35 construct: purchased Carna Biosciences

ALK = molecular target: T36, ALK (Homo sapiens, UniProt Q9UM73)
T36 construct: purchased Carna Biosciences

MAPKAPK5 = molecular target: T37, MAPKAPK5 (Homo sapiens, UniProt Q8IW41)
T37 construct: purchased Carna Biosciences
T37 sequence (Q8IW41 whole entry): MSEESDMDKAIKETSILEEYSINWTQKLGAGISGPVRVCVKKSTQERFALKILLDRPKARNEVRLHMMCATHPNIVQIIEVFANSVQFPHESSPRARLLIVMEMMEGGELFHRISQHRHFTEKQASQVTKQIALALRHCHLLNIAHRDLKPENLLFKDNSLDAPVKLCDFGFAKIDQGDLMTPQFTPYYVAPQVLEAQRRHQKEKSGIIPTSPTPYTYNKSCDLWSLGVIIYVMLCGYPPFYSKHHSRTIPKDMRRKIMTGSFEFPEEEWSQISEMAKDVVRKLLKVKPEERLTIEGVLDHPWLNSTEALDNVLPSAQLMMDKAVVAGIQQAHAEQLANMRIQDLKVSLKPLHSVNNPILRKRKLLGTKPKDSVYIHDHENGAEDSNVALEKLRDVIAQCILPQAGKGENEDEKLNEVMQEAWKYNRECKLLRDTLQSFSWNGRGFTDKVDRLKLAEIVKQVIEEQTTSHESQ

FGFR4(V550L) = molecular target: T38, FGFR4(V550L) (Homo sapiens, UniProt P22455, V550L)
T38 construct: purchased Carna Biosciences

SGK = molecular target: T39, SGK (Homo sapiens, UniProt O00141)
T39 construct: purchased Carna Biosciences

JAK2 = molecular target: T40, JAK2 (Homo sapiens, UniProt O60674)
T40 construct: purchased Carna Biosciences

PKD2 = molecular target: T41, PKD2 (Homo sapiens, UniProt Q9BZL6)
T41 construct: purchased Carna Biosciences

T1 sequence (O00418 whole entry): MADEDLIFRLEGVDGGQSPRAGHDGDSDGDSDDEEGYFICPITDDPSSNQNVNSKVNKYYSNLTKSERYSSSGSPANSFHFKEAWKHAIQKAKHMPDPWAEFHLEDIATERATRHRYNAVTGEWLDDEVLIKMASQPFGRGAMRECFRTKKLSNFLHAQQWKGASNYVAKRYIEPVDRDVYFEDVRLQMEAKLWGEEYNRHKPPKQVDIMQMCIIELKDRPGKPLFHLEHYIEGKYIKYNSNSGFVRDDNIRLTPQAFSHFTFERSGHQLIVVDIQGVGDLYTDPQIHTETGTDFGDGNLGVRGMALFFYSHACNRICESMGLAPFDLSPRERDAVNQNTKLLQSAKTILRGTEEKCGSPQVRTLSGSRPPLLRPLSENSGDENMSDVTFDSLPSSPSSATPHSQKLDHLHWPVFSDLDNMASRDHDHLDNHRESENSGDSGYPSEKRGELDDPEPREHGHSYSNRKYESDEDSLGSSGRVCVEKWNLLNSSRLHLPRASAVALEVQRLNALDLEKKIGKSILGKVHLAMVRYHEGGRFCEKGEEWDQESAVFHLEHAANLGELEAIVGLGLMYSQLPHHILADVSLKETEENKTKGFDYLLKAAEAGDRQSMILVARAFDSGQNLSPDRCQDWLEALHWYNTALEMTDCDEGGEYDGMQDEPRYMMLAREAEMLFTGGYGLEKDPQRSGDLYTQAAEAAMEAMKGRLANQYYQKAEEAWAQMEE

Compound: C[C@@H]1CC[C@H]2C(C)(C)CCC[C@]2(C)c2c1oc1c(C=O)c(O)c(O)cc21 [LG-1, liphagal]
- inhibition at 10 µM (EEF2K): 22.4%
- inhibition at 10 µM (TNK1): 5.1%
- inhibition at 10 µM (MSK1): 5%
- inhibition at 10 µM (RAK4): -2.8%
- inhibition at 10 µM (p38γ): -5.6%
- inhibition at 10 µM (MAP4K2): 5%
- inhibition at 10 µM (PASK): 17.4%
- inhibition at 10 µM (FGFR1(V561M)): -12.6%
- inhibition at 10 µM (CRIK): -0.8%
- inhibition at 10 µM (AMPKα1/β1/γ1): 19.9%
- inhibition at 10 µM (MAPKAPK2): 0.5%
- inhibition at 10 µM (NDR1): 2.6%
- inhibition at 10 µM (CSK): 7.2%
- inhibition at 10 µM (TXK): 23.1%
- inhibition at 10 µM (HPK2): 27%
- inhibition at 10 µM (DLK_Cascade): 13.9%
- inhibition at 10 µM (DCAMKL2): 14%
- inhibition at 10 µM (TNK): 0.1%
- inhibition at 10 µM (EGFR(T790M)): -2%
- inhibition at 10 µM (NEK1): 13.9%
- inhibition at 10 µM (ROCK1): 0.5%
- inhibition at 10 µM (EGFR): -4.4%
- inhibition at 10 µM (CDK3/CycE1): 40.1%
- inhibition at 10 µM (NEK9): 27.3%
- inhibition at 10 µM (MARK4): -3.8%
- inhibition at 10 µM (PHKG2): 1.5%
- inhibition at 10 µM (RET(G691S)): 14.8%
- inhibition at 10 µM (DYRK1B): 21.8%
- inhibition at 10 µM (SLK): 10.5%
- inhibition at 10 µM (PDGFRα(V561D)): 7.1%
- inhibition at 10 µM (LYNa): 7.6%
- % Inhibition (MAP3K4_Cascade): 62.9%
- inhibition at 10 µM (CLK1): 30.1%
- inhibition at 10 µM (ACK): 8.4%
- inhibition at 10 µM (PLK1): 31.3%
- inhibition at 10 µM (TIE2): 11.7%
- inhibition at 10 µM (ALK): 9%
- inhibition at 10 µM (MAPKAPK5): 4.8%
- inhibition at 10 µM (FGFR4(V550L)): 7.8%
- inhibition at 10 µM (SGK): 12.4%
- inhibition at 10 µM (JAK2): -0.7%
- inhibition at 10 µM (PKD2): 2.8%
